# Experimental data reported in patent US12291581B2, “Serpin peptides and methods of using the same” (SERPIN PHARMA, LLC, priority 2012, dated 2025).
# “Also recorded” adds a separate entry of the source.
# Experiments:
# [1] = Pharmacokinetic profile after intravenous injection, plasma by LC/MS/MS; format: in vivo, rats; conditions: IV 5 mg/kg
# Method: In performing the assay, three normal rats were injected intravenously with 5 mg/kg SP16 and the plasma concentration of SP16 established at 8 time points following the injection. […] The assay was executed by Apredica, Boston, Mass.
# [2] = system: 111 in vitro assay targets (human receptors); experiment: Human receptor panning, GenSEP Explorer panel
# Source text: In addition, we also performed a profile using human receptor panning. The GenSEP Explorer panel contains 111 in vitro assay targets carefully selected to assess drug/chemical biological activities. Assay categories include GPCRs, Voltage-Gated Ion Channels, Ligand-Gated Ion Channels, Neurotransmitter transporters, Nuclear Receptors and Steroids as well as a diverse set of biochemical targets including phosphodiesterases, kinases and other relevant enzymes.
# [3] = target: hERG (Homo sapiens, UniProt Q12809); format: cell-based
# Source text: The SP16 safety profile also included hERG data. […] The study was executed by Apredica, Boston, MA.
# [4] = target: T1, TLR-2 (Mus musculus, UniProt Q9QUN7); experiment: TLR-2 indicator cell line assay (HEK-Blue mTLR2), secreted alkaline phosphatase; format: cell-based; conditions: 20 μg/ml peptide, 24 hours
# T1 construct: host or cells: HEK-Blue mTLR2 (HEK293-derived reporter line, SEAP read-out)
# Method: Graph summarizing representative data from assays with an engineered TLR-2 indicator cell line (HEK-Blue™ mTLR2, Invivogen). Cells were incubated with the indicated concentrations of peptide for 24 hours. Upon TLR2 activation, the cells secrete alkaline phosphatase which can be assayed. The assay was done in triplicate and averages with standard deviations are plotted.
# Graph summarizing data from an experiment where an engineered TLR-2 indicator cell line (HEK-Blue™ mTLR2, Invivogen) was used to test the impact of substituting amino acid residues of the SP16 peptide with alanine (“alanine scan”). Cells were incubated with 20 μg/ml of the indicated peptides for 24 hours. Upon TLR2 activation, the cells secrete alkaline phosphatase which can be assayed. The assay was done in triplicate and averages are plotted. Peptide sequences are shown in the following figure. *p<0.05, compared with scrambled control (SP34).
# We also performed a peptide optimization assay using an alanine scan with the TLR-2 assay. Data was obtained using an experiment with an engineered TLR-2 indicator cell line (HEK-BLUE™ mTLR2, Invivogen). Cells were incubated with the 20 μg/ml of the indicated peptides for 24 hours. Upon TLR2 activation, the cells secrete alkaline phosphatase, which can be assayed. The assay was done in triplicate and averages are plotted. […]
# [5] = system: LPS challenged mice; experiment: Mouse LPS challenge (sepsis/inflammation) model, serum TNF-alpha by ELISA; format: in vivo; conditions: for anti-inflammatory effect when administered to a mouse model of sepsis (FIG. 10): Table B peptides; for TNF-alpha levels in LPS challenged mice, alanine scanned SP16 peptides (FIG. 10B): compared with Dexamethasone positive control
# Method: FIGS. 10A and B. FIG. 10A presents exemplary peptides that were used to reduce TNF-alpha levels in mice subjected to an LPS challenge. […] The mice were treated with alanine scanned SP16 peptide. […] Based on this alanine screen, and without wishing to be bound by a theory, it appears that the C- and N-terminal amino acids contribute to the anti-inflammatory effect of the SP16 peptide. […] Groups of 3 animals were injected with 0.2 mg/kg peptide and subjected to LPS challenge. Serum TNF-alpha levels were determined by ELISA. Several peptides provided the same level of protection as 1 mg/kg Dexamethasone.
# The ability of peptide drugs was tested to for their potential for the reduction of inflammatory cytokines following treatment with purified bacterial lipopolysaccharide (LPS)—a major component of bacterial cell wall of Gram-negative bacteria. A model of inflammation was used wherein mice were injected with LPS, which induced a transient immune response and a surge of serum inflammatory cytokines. The immune response peaks after 90 minutes and subsides after 24 hours. The levels of key serum inflammatory markers were compared between mice treated and untreated with LPS 90 minutes after injection.
# We designed 18 different peptides based on the hAAT sequence (Accession #AAB59371), and had these synthesized using conventional FMOC chemistry. To assess in vivo anti-inflammatory and therapeutic potential, the peptides were tested in a mouse lipopolysaccharide (LPS) challenge model with serum TNFα levels as readout. Using dexamethasone as reference, groups of 3 animals were IP injected with 0.2 mg/kg peptide 2 hours prior to an LPS challenge, and serum TNFα levels determined 30 min after the LPS challenge, by ELISA. The best performing peptide reduced serum TNFα levels equivalent to those achieved with 1 mg/kg dexamethasone. Next, shortened versions of this peptide were synthesized, tested in the mouse LPS challenge model, and a 17 amino acid peptide, SP16, emerged as a lead development candidate for further characterization. Next, SP16 was tested in a lethal endotoxemia model, which models endotoxemia following acute radiation exposure, where Gram negative bacteria leaking from the gastro-intestinal system can cause lethal endotoxemia.
# Mice were injected with 0.5, 0.1, 0.02 and 0.004 mg of each peptide. Mice were also treated with dexamethasone as a positive control and vehicle as a negative control. Two hours later each mouse was injected with LPS. Samples were taken 90 minutes after LPS injection.
# To evaluate the effect of different amino acids in the SP16 peptide for the immunomodulating effect, we created an alanine screen. […] The peptides wherein the substitution occurred within amino acids 4-14 of SP16, appeared to maintain and rather improve their capacity to reduce TNF-alpha levels compared to the control Dexamethasone. The LPS mouse model is an established model for sepsis in humans and thus we conclude that peptides wherein the amino acids 1-3 and 15-17 are present, can be effectively used in humans to treat or prevent sepsis in conditions, such as burns or acute radiation, which expose humans to a high risk of developing endotoxemia.
# [6] = system: NOD mice; experiment: NOD mouse spontaneous autoimmune (type I) diabetes model; format: in vivo; conditions: groups of 12 NOD mice, vs scrambled control peptide
# Method: Groups of 12 animals were injected with SP16, hAAT or scrambled control peptide. Non-fasted blood glucose levels were measured twice a week and animals with two consecutive readings greater than 300 mg/dl were considered diabetic.
# NOD (non-obese diabetic) mice spontaneously develop overt, insulin-dependent type I diabetes. The NOD model is recommended by the FDA for preclinical testing of therapeutic agents for type I diabetes. Disease onset typically occurs at 12-14 weeks of age, with peri-insulitis detectable from about 4 weeks of age and developing into severe insulitis at 10 weeks of age. The autoimmune destruction of β-cells is thought to arise from dysregulation of multiple tolerance pathways, leading to islet infiltration with monocytes, predominantly CD4^+ and CD8^+ T cells, and insulitis, with subsequent hypoinsulinemia and hyperglycemia.
# Sequence of hERG (Q12809 whole entry): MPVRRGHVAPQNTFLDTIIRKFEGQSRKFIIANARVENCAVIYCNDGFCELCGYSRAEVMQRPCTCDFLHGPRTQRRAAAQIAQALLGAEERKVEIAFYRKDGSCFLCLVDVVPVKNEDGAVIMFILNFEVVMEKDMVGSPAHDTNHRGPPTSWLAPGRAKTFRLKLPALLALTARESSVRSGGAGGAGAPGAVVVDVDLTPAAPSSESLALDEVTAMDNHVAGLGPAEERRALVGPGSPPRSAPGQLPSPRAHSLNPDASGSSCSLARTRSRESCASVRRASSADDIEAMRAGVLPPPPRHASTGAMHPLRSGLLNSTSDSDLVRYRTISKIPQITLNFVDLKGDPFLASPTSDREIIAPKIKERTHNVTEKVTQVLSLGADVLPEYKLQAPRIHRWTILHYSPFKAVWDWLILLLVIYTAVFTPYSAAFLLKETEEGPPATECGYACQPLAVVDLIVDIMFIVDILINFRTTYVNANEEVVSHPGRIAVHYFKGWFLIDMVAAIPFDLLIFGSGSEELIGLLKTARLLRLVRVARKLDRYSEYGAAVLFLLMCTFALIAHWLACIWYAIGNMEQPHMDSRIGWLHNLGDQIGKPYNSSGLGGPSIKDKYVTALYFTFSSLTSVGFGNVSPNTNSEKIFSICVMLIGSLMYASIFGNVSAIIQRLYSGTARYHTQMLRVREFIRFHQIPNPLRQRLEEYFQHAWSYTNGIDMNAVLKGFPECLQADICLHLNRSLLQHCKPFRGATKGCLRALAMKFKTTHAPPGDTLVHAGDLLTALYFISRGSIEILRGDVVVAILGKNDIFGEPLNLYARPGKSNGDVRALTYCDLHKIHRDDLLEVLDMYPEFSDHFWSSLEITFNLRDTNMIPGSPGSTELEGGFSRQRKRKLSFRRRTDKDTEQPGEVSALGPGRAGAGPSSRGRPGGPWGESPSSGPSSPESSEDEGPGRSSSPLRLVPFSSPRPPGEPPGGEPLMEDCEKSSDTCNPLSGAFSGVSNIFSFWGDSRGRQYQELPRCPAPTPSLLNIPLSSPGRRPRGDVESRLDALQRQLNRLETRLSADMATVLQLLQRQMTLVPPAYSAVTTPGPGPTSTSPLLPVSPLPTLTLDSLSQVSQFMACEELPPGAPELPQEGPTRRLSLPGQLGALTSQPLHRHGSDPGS
# T1 sequence (Q9QUN7 25-784): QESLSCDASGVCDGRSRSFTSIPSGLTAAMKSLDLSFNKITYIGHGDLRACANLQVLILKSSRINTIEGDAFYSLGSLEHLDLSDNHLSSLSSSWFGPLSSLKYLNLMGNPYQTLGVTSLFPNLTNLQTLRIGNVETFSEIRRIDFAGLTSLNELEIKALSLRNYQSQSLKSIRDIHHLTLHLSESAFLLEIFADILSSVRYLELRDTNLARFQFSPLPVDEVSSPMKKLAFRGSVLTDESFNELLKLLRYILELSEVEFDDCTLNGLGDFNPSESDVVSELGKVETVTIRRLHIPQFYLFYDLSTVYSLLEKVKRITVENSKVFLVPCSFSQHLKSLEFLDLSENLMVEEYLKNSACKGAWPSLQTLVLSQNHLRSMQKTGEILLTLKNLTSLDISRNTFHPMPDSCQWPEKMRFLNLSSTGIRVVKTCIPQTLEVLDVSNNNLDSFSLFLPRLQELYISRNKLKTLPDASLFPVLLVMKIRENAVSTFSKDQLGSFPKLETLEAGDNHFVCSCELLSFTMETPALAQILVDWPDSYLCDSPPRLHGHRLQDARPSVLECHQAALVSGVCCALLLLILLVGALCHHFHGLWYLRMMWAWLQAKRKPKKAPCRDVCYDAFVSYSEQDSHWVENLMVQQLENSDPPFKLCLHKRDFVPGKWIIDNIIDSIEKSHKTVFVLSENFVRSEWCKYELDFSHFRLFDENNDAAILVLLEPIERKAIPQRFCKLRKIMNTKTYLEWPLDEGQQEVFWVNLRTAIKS
molecule,measurement,setting,value
CC[C@H](C)[C@H](NC(=O)[C@H](CCSC)NC(=O)[C@H](CC(C)C)NC(=O)[C@H](Cc1ccccc1)NC(=O)[C@@H](NC(=O)[C@H](Cc1ccccc1)NC(=O)[C@@H]1CCCN1C(=O)[C@H](CCCCN)NC(=O)[C@H](CC(N)=O)NC(=O)[C@H](Cc1ccccc1)NC(=O)[C@H](CCCCN)NC(=O)[C@@H](N)C(C)C)C(C)C)C(=O)N[C@@H](CCC(=O)O)C(=O)N[C@@H](CCC(N)=O)C(=O)N[C@@H](CC(N)=O)C(=O)N[C@H](C(=O)N[C@@H](CCCCN)C(=O)O)[C@@H](C)O [SP16],Last Time point,[1]; normal rats,8.0
same,t1/2,[1]; normal rats,1.9 h
same,Cmax,"[1]; three normal rats, plasma",2500 ng/mL
same,T1/2 (half-life),"[1]; three normal rats, plasma",1.9 h
same,effect on the whole GenSEP Explorer panel,[2]; 111 human receptors,not able to identify any hits; also recorded: no effect on 111 human receptors
same,Percent inhibition,"[2]; Brain/gut peptides, 15 receptors tested",Insignificant
same,Percent inhibition,"[2]; Cell-Based, Functional, 1 receptor tested",Insignificant
same,Percent inhibition,"[2]; Enzymes, 20 receptors tested",Insignificant
same,Percent inhibition,"[2]; Enzymes, Kinases, 11 receptors tested",Insignificant
same,Percent inhibition,"[2]; Growth factors & hormones, 2 receptors tested",Insignificant
same,Percent inhibition,"[2]; Ion Channels, 8 receptors tested",Insignificant
same,Percent inhibition,"[2]; Neurotransmitter Related, 47 receptors tested",Insignificant
same,Percent inhibition,"[2]; Second Messengers, 3 receptors tested",Insignificant
same,Percent inhibition,"[2]; Steroids, 4 receptors tested",Insignificant
same,comment on hERG inhibition,"[3]; hERG FastPatch, 0.008-25 μM",No concentration-dependent
same,IC50,"[3]; hERG FastPatch, test conc 0.008-25 μM (SP16), 0.01-10 μM (Quinidine)",> 25 µM
same,hERG inhibition,[3]; up to 25 μM,does not impact hERG activity; also recorded: does not inhibit hERG
"A A A N K P F V F L M I E Q N T K (AAANKPFVFLMIEQNTK; listed as Homo sapiens) [SP37, SP16 with residues 1-3 substituted with alanines]","impact on TLR-2 signaling, alanine scan, FIG. 12/13",[4],no impact on TLR2
"V K F A A A F V F L M I E Q N T K (VKFAAAFVFLMIEQNTK; listed as Homo sapiens) [SP40, alanine scanned SP16 peptide]",anti-inflammatory effect when administered to a mouse model of sepsis (FIG. 10),[5],particularly good anti-inflammatory effect
same,"TNF-alpha levels in LPS challenged mice, alanine scanned SP16 peptides (FIG. 10B)",[5],reduce TNF-alpha levels more than Dexamethasone
"V K F N K P A A A L M I E Q N T K (VKFNKPAAALMIEQNTK; listed as Homo sapiens) [SP43, alanine scanned SP16 peptide]",anti-inflammatory effect when administered to a mouse model of sepsis (FIG. 10),[5],particularly good anti-inflammatory effect
same,"TNF-alpha levels in LPS challenged mice, alanine scanned SP16 peptides (FIG. 10B)",[5],reduce TNF-alpha levels more than Dexamethasone
"V K F N K P F V F A A A E Q N T K (VKFNKPFVFAAAEQNTK; listed as Homo sapiens) [SP46, alanine scanned SP16 peptide]",anti-inflammatory effect when administered to a mouse model of sepsis (FIG. 10),[5],particularly good anti-inflammatory effect
same,"TNF-alpha levels in LPS challenged mice, alanine scanned SP16 peptides (FIG. 10B)",[5],reduce TNF-alpha levels more than Dexamethasone
"V K F N K P F V F L M I A A A T K (VKFNKPFVFLMIAAATK; listed as Homo sapiens) [SP49, alanine scanned SP16 peptide]",anti-inflammatory effect when administered to a mouse model of sepsis (FIG. 10),[5],particularly good anti-inflammatory effect
same,"TNF-alpha levels in LPS challenged mice, alanine scanned SP16 peptides (FIG. 10B)",[5],reduce TNF-alpha levels more than Dexamethasone
"hAAT: human alpha-1-antitrypsin, parent protein of SP16",incidence / development of diabetes (two consecutive non-fasted glucose readings greater than 300 mg/dl),[6],delayed and reduced the incidence of diabetes
